# Structures can show the parent of a compound that is named as a salt. Where a SMILES comes first, the peptide text is derived from it. [ ]: non-standard residue; d: D form. The star is where a group is joined. X2 = CC(C)[C@@H](C(=O)*)N(C)CCCCCCN1C(=O)CC(SC[C@H](N)C(=O)O)C1=O; X3 = CC(C)[C@@H](C(=O)*)N(C)CCOCCOCCOCCC(=O)NCCCC[C@H](N)C(=O)O; X1 = CC(C)[C@@H](C(=O)*)N(C)CCCCCC(=O)NCCCC[C@H](N)C(=O)O; Dolaproine = CO[C@@H]([C@@H]1CCCN1)[C@@H](C)C(=O)O; Dil = CC[C@H](C)[C@H](NC)[C@@H](CC(=O)O)OC; X4 = C[C@@H](N*)[C@@H](O)c1ccccc1; Oxazinan2yl(1,2) = C1CCN(*)OC1; NMeV = CN[C@H](C(=O)O)C(C)C
# Experiments:
# tubulin = assay: Fluorescence-based microtubule polymerisation assay; format: biochemical; conditions: rate at 1 μM MMAF set at 100%
# Description: Tubulin polymerization was investigated using the “Fluorescence-based Microtubule Polymerisation Assay Kit” from Cytoskeleton (Denver, Colo., USA; order number: BK011). With this assay, GTP is added to unpolymerized tubulin, allowing polymerization to take place spontaneously. The assay is based on the binding of the fluorophore 4′,6-diamidino-2-phenylindole (DAPI) to tubulin. Free and bound DAPI can be differentiated on the basis of different emission spectra.
# In addition to the buffer control, paclitaxel, with a polymerization-increasing effect, and vinblastin, with a polymerization inhibiting effect, were run additionally as assay controls. Measurement was carried out using 96-well plates with a half base area. The kinetics of the tubulin polymerization were monitored in a Fluorimeter at 37° C. for 1 hour. The excitation wavelength was 355 nm, and emission was monitored at 460 nm. For the region of linear increase within the first 10 minutes, a calculation was made of the change in fluorescence per minute (ΔF/min), which represents the polymerization rate of the microtubuli. The potency of the test substances was quantified on the basis of their respective reduction of the polymerization rate. Table 6 below gives data for the influence of representative working examples on tubulin polymerization.
# [1] = Flux assay using Caco-2 cells (cell permeability); format: in vitro ADME; conditions: human, 2 hours incubation
# Description: (§1) The cell permeability of a substance can be investigated by means of in vitro testing in a flux assay using Caco-2 cells [M. D. Troutman and D. R. Thakker, Pharm. Res. 20 (8), 1210-1224 (2003)]. For this purpose, the cells were cultured for 15-16 days on 24-well filter plates. For the determination of permeation, the respective working example was applied in a HEPES buffer to the cells either apically (A) or basally (B) and incubated for 2 hours. After 0 hours and after 2 hours, samples were taken from the cis and trans compartments. The samples were separated by HPLC (Agilent 1200, Böblingen, Germany) using reverse phase columns. The HPLC system was coupled via a Turbo Ion Spray Interface to a Triple Quadropol mass spectrometer API 4000 (Applied Biosystems Applera, Darmstadt, Germany). The permeability was evaluated on the basis of a Papp value, which was calculated using the formula published by Schwab et al. [D. Schwab et al., J. Med. Chem. 46, 1716-1725 (2003)].
# Caco-2 cells = assay: Flux assay using Caco-2 cells (cell permeability); format: in vitro ADME; conditions: 2 hours incubation
# Description: as §1
Compound,Tubulin polymerization in the presence of toxophore (tubulin; toxophore 1 μM),Tubulin polymerization in the presence of toxophore (tubulin; toxophore 10 μM),Papp B→A at 2 h [1],Papp (B-A) (Caco-2 cells)
"CC[C@H](C)[C@@H]([C@@H](CC(=O)N1CCC[C@H]1[C@H](OC)[C@@H](C)C(=O)N[C@@H](Cc1c[nH]c2ccccc12)C(=O)N1CCCCO1)OC)N(C)C(=O)[C@@H](NC(=O)[C@H](C(C)C)N(C)CCCCCC(=O)NCCCC[C@H](N)C(=O)O)C(C)C [Example 18, N-(6-{[(5S)-5-Amino-5-carboxypentyl]amino}-6-oxohexyl)-N-methyl-L-valyl-N-[(3R,4S,5S)-1-{(2S)-2-[(1R,2R)-3-{[(2S)-3-(1H-indol-3-yl)-1-(1,2-oxazinan-2-yl)-1-oxopropan-2-yl]amino}-1-methoxy-2-methyl-3-oxopropyl]pyrrolidin-1-yl}-3-methoxy-5-methyl-1-oxoheptan-4-yl]-N-methyl-L-valinamide trifluoroacetate] (X1-V[Dil][Dolaproine]W-{Oxazinan2yl(1,2)})",45%,1%,0.2 ×10⁻⁶ cm/s,
"CC[C@H](C)[C@@H]([C@@H](CC(=O)N1CCC[C@H]1[C@H](OC)[C@@H](C)C(=O)N[C@@H](Cc1c[nH]c2ccccc12)C(=O)O)OC)N(C)C(=O)[C@@H](NC(=O)[C@H](C(C)C)N(C)CCCCCC(=O)NCCCC[C@H](N)C(=O)O)C(C)C [Example 19, N-(6-{[(5S)-5-Amino-5-carboxypentyl]amino}-6-oxohexyl)-N-methyl-L-valyl-N-[(3R,4S,5S)-1-{(2S)-2-[(1R,2R)-3-{[(1S)-1-carboxy-2-(1H-indol-3-yl)ethyl]amino}-1-methoxy-2-methyl-3-oxopropyl]pyrrolidin-1-yl}-3-methoxy-5-methyl-1-oxoheptan-4-yl]-N-methyl-L-valinamide] (X1-V[Dil][Dolaproine]W-OH)",80%,14%,0.1 ×10⁻⁶ cm/s,
"CC[C@H](C)[C@@H]([C@@H](CC(=O)N1CCC[C@H]1[C@H](OC)[C@@H](C)C(=O)N[C@@H](Cc1c[nH]c2ccccc12)C(=O)N1CCCCO1)OC)N(C)C(=O)[C@@H](NC(=O)[C@H](C(C)C)N(C)CCOCCOCCOCCC(=O)NCCCC[C@H](N)C(=O)O)C(C)C [Example 20, N-[(18S)-18-Amino-18-carboxy-12-oxo-3,6,9-trioxa-13-azaoctadec-1-yl]-N-methyl-L-valyl-N-[(3R,4S,5S)-1-{(2S)-2-[(1R,2R)-3-{[(2S)-3-(1H-indol-3-yl)-1-(1,2-oxazinan-2-yl)-1-oxopropan-2-yl]amino}-1-methoxy-2-methyl-3-oxopropyl]pyrrolidin-1-yl}-3-methoxy-5-methyl-1-oxoheptan-4-yl]-N-methyl-L-valinamide trifluoroacetate] (X3-V[Dil][Dolaproine]W-{Oxazinan2yl(1,2)})",60%,0%,,
"CC[C@H](C)[C@@H]([C@@H](CC(=O)N1CCC[C@H]1[C@H](OC)[C@@H](C)C(=O)N[C@@H](Cc1c[nH]c2ccccc12)C(N)=O)OC)N(C)C(=O)[C@@H](NC(=O)[C@H](C(C)C)N(C)CCCC(=O)NNC(=O)CCCCCN1C(=O)CC(SC[C@H](N)C(=O)O)C1=O)C(C)C (stereo partly drawn) [Example 21, N-(4-{2-[6-(3-{[(2R)-2-Amino-2-carboxyethyl]sulphanyl}-2,5-dioxopyrrolidin-1-yl)hexanoyl]hydrazino}-4-oxobutyl)-N-methyl-L-valyl-N-[(3R,4S,5S)-1-{(2S)-2-[(1R,2R)-3-{[(2S)-1-amino-3-(1H-indol-3-yl)-1-oxopropan-2-yl]amino}-1-methoxy-2-methyl-3-oxopropyl]pyrrolidin-1-yl}-3-methoxy-5-methyl-1-oxoheptan-4-yl]-N-methyl-L-valinamide]",88%,25%,0.2 ×10⁻⁶ cm/s,
"CC[C@H](C)[C@@H]([C@@H](CC(=O)N1CCC[C@H]1[C@H](OC)[C@@H](C)C(=O)N[C@@H](Cc1c[nH]c2ccccc12)C(=O)O)OC)N(C)C(=O)[C@@H](NC(=O)[C@H](C(C)C)N(C)CCCCCCN1C(=O)CC(SC[C@H](N)C(=O)O)C1=O)C(C)C (stereo partly drawn) [Example 23, N-[6-(3-{[(2R)-2-Amino-2-carboxyethyl]sulphanyl}-2,5-dioxopyrrolidin-1-yl)hexyl]-N-methyl-L-valyl-N-[(3R,4S,5S)-1-{(2S)-2-[(1R,2R)-3-{[(1S)-1-carboxy-2-(1H-indol-3-yl)ethyl]amino}-1-methoxy-2-methyl-3-oxopropyl]pyrrolidin-1-yl}-3-methoxy-5-methyl-1-oxoheptan-4-yl]-N-methyl-L-valinamide] (X2-V[Dil][Dolaproine]W-OH)",,,0.1 ×10⁻⁶ cm/s,
"CC[C@H](C)[C@@H]([C@@H](CC(=O)N1CCC[C@H]1[C@H](OC)[C@@H](C)C(=O)N[C@@H](Cc1c[nH]c2ccccc12)C(=O)N1CCCCO1)OC)N(C)C(=O)[C@@H](NC(=O)[C@H](C(C)C)N(C)CCCCCCN1C(=O)CC(SC[C@H](N)C(=O)O)C1=O)C(C)C (stereo partly drawn) [Example 24, N-[6-(3-{[(2R)-2-Amino-2-carboxyethyl]sulphanyl}-2,5-dioxopyrrolidin-1-yl)hexyl]-N-methyl-L-valyl-N-[(3R,4S,5S)-1-{(2S)-2-[(1R,2R)-3-{[(2S)-3-(1H-indol-3-yl)-1-(1,2-oxazinan-2-yl)-1-oxopropan-2-yl]amino}-1-methoxy-2-methyl-3-oxopropyl]pyrrolidin-1-yl}-3-methoxy-5-methyl-1-oxoheptan-4-yl]-N-methyl-L-valinamide] (X2-V[Dil][Dolaproine]W-{Oxazinan2yl(1,2)})",121%,35%,,
"CC[C@H](C)[C@@H]([C@@H](CC(=O)N1CCC[C@H]1[C@H](OC)[C@@H](C)C(=O)N[C@@H](Cc1ccc(O)cc1)C(=O)N1CCCCO1)OC)N(C)C(=O)[C@@H](NC(=O)[C@H](C(C)C)N(C)CCCCCC(=O)NCCCC[C@H](N)C(=O)O)C(C)C [Example 36, N-(6-{[(5S)-5-Amino-5-carboxypentyl]amino}-6-oxohexyl)-N-methyl-L-valyl-N-[(3R,4S,5S)-1-{(2S)-2-[(1R,2R)-3-{[(2S)-3-(4-hydroxyphenyl)-1-(1,2-oxazinan-2-yl)-1-oxopropan-2-yl]amino}-1-methoxy-2-methyl-3-oxopropyl]pyrrolidin-1-yl}-3-methoxy-5-methyl-1-oxoheptan-4-yl]-N-methyl-L-valinamide trifluoroacetate] (X1-V[Dil][Dolaproine]Y-{Oxazinan2yl(1,2)})",,,0.15 ×10⁻⁶ cm/s,
"CC[C@H](C)[C@@H]([C@@H](CC(=O)N1CCC[C@H]1[C@H](OC)[C@@H](C)C(=O)N[C@@H](Cc1ccc(O)cc1)C(=O)O)OC)N(C)C(=O)[C@@H](NC(=O)[C@H](C(C)C)N(C)CCCCCC(=O)NCCCC[C@H](N)C(=O)O)C(C)C [Example 37, N-(6-{[(5S)-5-Amino-5-carboxypentyl]amino}-6-oxohexyl)-N-methyl-L-valyl-N-[(3R,4S,5S)-1-{(2S)-2-[(1R,2R)-3-{[(1S)-1-carboxy-2-(4-hydroxyphenyl)ethyl]amino}-1-methoxy-2-methyl-3-oxopropyl]pyrrolidin-1-yl}-3-methoxy-5-methyl-1-oxoheptan-4-yl]-N-methyl-L-valinamide trifluoroacetate] (X1-V[Dil][Dolaproine]Y-OH)",,,0.09 ×10⁻⁶ cm/s,
"CC[C@H](C)[C@@H]([C@@H](CC(=O)N1CCC[C@H]1[C@H](OC)[C@@H](C)C(=O)N[C@H](C)[C@@H](O)c1ccccc1)OC)N(C)C(=O)[C@@H](NC(=O)[C@@H](NC)C(C)C)C(C)C [monomethylauristatin E (MMAE), monomethylauristatin E, reference compound] (H-[NMeV]V[Dil][Dolaproine]-X4)",,,,7.3 ×10⁻⁶ cm/s
"CC[C@H](C)[C@@H]([C@@H](CC(=O)N1CCC[C@H]1[C@H](OC)[C@@H](C)C(=O)N[C@@H](Cc1ccccc1)C(=O)O)OC)N(C)C(=O)[C@@H](NC(=O)[C@@H](NC)C(C)C)C(C)C [monomethylauristatin F (MMAF), monomethylauristatin F, reference compound] (H-[NMeV]V[Dil][Dolaproine]F-OH)",100%,34%,,7.3 ×10⁻⁶ cm/s
